ChEMBL document CHEMBL5370591, “A Potent and Narrow-Spectrum Antibacterial against Clostridioides difficile Infection” (J Med Chem, 2023)
Values after ≈ are worked out from the molar mass of the structure shown.

Key:
Clostridioides difficile [1] = test: Antibacterial activity against Clostridium difficile ATCC 43255 assessed as inhibition of bacterial growth by broth microdilution method; type: functional
Clostridioides difficile [2] = test: Antibacterial activity against Clostridium difficile BAA-1870 assessed as inhibition of bacterial growth by broth microdilution method; type: functional
Clostridioides difficile [3] = test: Antibacterial activity against Clostridium difficile BAA-1803 assessed as inhibition of bacterial growth by broth microdilution method; type: functional
Clostridioides difficile [4] = test: Antibacterial activity against Clostridium difficile NR49310 assessed as inhibition of bacterial growth by broth microdilution method; type: functional
Clostridioides difficile [5] = test: Antibacterial activity against Clostridium difficile NR49294 assessed as inhibition of bacterial growth by broth microdilution method; type: functional
Clostridioides difficile [6] = test: Antibacterial activity against Clostridium difficile NR49305 assessed as inhibition of bacterial growth by broth microdilution method; type: functional
Clostridioides difficile [7] = test: Antibacterial activity against Clostridium difficile NR49318 assessed as inhibition of bacterial growth by broth microdilution method; type: functional
Clostridioides difficile [8] = test: Antibacterial activity against Clostridium difficile NR49292 assessed as inhibition of bacterial growth by broth microdilution method; type: functional
Clostridioides difficile [9] = test: Antibacterial activity against Clostridium difficile NR49302 assessed as inhibition of bacterial growth by broth microdilution method; type: functional
Clostridioides difficile [10] = test: Antibacterial activity against Clostridium difficile 26675 assessed as inhibition of bacterial growth by broth microdilution method; type: functional
Clostridioides difficile [11] = test: Antibacterial activity against Clostridium difficile 23828 assessed as inhibition of bacterial growth by broth microdilution method; type: functional
Clostridioides difficile [12] = test: Antibacterial activity against Clostridium difficile 24531 assessed as inhibition of bacterial growth by broth microdilution method; type: functional
Staphylococcus aureus [13] = test: Antibacterial activity against vancomycin-resistant Staphylococcus aureus clinical isolate 1 assessed as inhibition of bacterial growth by broth microdilution method; type: functional
[14] = test system: Staphylococcus haemolyticus; test: Antibacterial activity against Staphylococcus haemolyticus ATCC 29970 assessed as inhibition of bacterial growth by broth microdilution method; type: functional
Streptococcus oralis = test: Antibacterial activity against Streptococcus oralis ATCC 9811 assessed as inhibition of bacterial growth by broth microdilution method; type: functional
Enterococcus faecium [15] = test: Antibacterial activity against vancomycin susceptible Enterococcus faecium119-39A assessed as inhibition of bacterial growth by broth microdilution method; type: functional; details: 119-39A
Enterococcus faecium [16] = test: Antibacterial activity against vancomycin resistant Enterococcus faecium 106 assessed as inhibition of bacterial growth by broth microdilution method; type: functional
Bacteroides fragilis = test: Antibacterial activity against Bacteroides fragilis HM-709 assessed as inhibition of bacterial growth by broth microdilution method; type: functional
Bifidobacterium longum = test: Antibacterial activity against Bifidobacterium longum HM-846 assessed as inhibition of bacterial growth by broth microdilution method; type: functional
Corynebacterium sp. = test: Antibacterial activity against Corynebacterium sp. HM-784 assessed as inhibition of bacterial growth by broth microdilution method; type: functional
Fusobacterium nucleatum = test: Antibacterial activity against Fusobacterium nucleatum HM-992 assessed as inhibition of bacterial growth by broth microdilution method; type: functional
[17] = test system: Limosilactobacillus reuteri; test: Antibacterial activity against Lactobacillus reuteri HM-102 assessed as inhibition of bacterial growth by broth microdilution method; type: functional
Lactobacillus gasseri = test: Antibacterial activity against Lactobacillus gasseri HM-644 assessed as inhibition of bacterial growth by broth microdilution method; type: functional
Veillonella = test: Antibacterial activity against Veillonella HM-49 assessed as inhibition of bacterial growth by broth microdilution method; type: functional
Eubacterium sp. = test: Antibacterial activity against Eubacterium sp. HM-178 assessed as inhibition of bacterial growth by broth microdilution method; type: functional
Klebsiella pneumoniae = test: Antibacterial activity against Klebsiella pneumoniae ATCC700603 assessed as inhibition of bacterial growth by broth microdilution method; type: functional
Acinetobacter baumannii = test: Antibacterial activity against Acinetobacter baumannii ATCC17961 assessed as inhibition of bacterial growth by broth microdilution method; type: functional
Pseudomonas aeruginosa = test: Antibacterial activity against Pseudomonas aeruginosa ATCC27853 assessed as inhibition of bacterial growth by broth microdilution method; type: functional
Klebsiella aerogenes = test: Antibacterial activity against Klebsiella aerogenes ATCC35029 assessed as inhibition of bacterial growth by broth microdilution method; type: functional
Escherichia coli = test: Antibacterial activity against Escherichia coli ATCC25922 assessed as inhibition of bacterial growth by broth microdilution method; type: functional
THP-1 = test: Cytotoxicity against human THP-1 cells assessed as increase in LDH release incubate for 24 hrs by trypan-blue staining based analysis; type: functional, cell-based; details: THP-1, 24 h
[18] = Selectivity ratio of IC50 for human THP-1 cells to MIC for Clostridium difficile ATCC 43255; type: toxicity
Staphylococcus aureus [19] = test: Antibacterial activity against Staphylococcus aureus ATCC 29213 assessed as inhibition of bacterial growth by broth microdilution method; type: functional
Staphylococcus aureus [20] = test: Antibacterial activity against Staphylococcus aureus ATCC 27660 assessed as inhibition of bacterial growth by broth microdilution method; type: functional
Staphylococcus aureus [21] = test: Antibacterial activity against Staphylococcus aureus NRS100 assessed as inhibition of bacterial growth by broth microdilution method; type: functional
Staphylococcus aureus [22] = test: Antibacterial activity against Staphylococcus aureus NRS119 assessed as inhibition of bacterial growth by broth microdilution method; type: functional
Staphylococcus aureus [23] = test: Antibacterial activity against Staphylococcus aureus NRS120 assessed as inhibition of bacterial growth by broth microdilution method; type: functional
Staphylococcus aureus [24] = test: Antibacterial activity against vancomycin-resistant Staphylococcus aureus clinical isolate 2 assessed as inhibition of bacterial growth by broth microdilution method; type: functional
[25] = test system: Staphylococcus epidermidis; test: Antibacterial activity against Staphylococcus epidermidis ATCC 35547 assessed as inhibition of bacterial growth by broth microdilution method; type: functional
Streptococcus pyogenes = test: Antibacterial activity against Streptococcus pyogenes ATCC 49399 assessed as inhibition of bacterial growth by broth microdilution method; type: functional
Bacillus cereus = test: Antibacterial activity against Bacillus cereus ATCC 13061 assessed as inhibition of bacterial growth by broth microdilution method; type: functional
Bacillus licheniformis = test: Antibacterial activity against Bacillus licheniformis ATCC 12759 assessed as inhibition of bacterial growth by broth microdilution method; type: functional
Enterococcus faecalis [26] = test: Antibacterial activity against Enterococcus faecalis ATCC 29212 assessed as inhibition of bacterial growth by broth microdilution method; type: functional
Enterococcus faecalis [27] = test: Antibacterial activity against vancomycin susceptible Enterococcus faecalis 201 assessed as inhibition of bacterial growth by broth microdilution method; type: functional
Enterococcus faecalis [28] = test: Antibacterial activity against vancomycin resistant Enterococcus faecalis 99 assessed as inhibition of bacterial growth by broth microdilution method; type: functional
Enterococcus faecium [29] = test: Antibacterial activity against Enterococcus faecium NCTC 7171 assessed as inhibition of bacterial growth by broth microdilution method; type: functional

## CCc1c(Cl)c(O)c(Cl)c(O)c1C(=O)O[C@H]1[C@H](O)[C@H](OC)[C@H](OC/C2=C\C=C\C[C@H](O)/C(C)=C/[C@H](CC)[C@@H](O[C@@H]3OC(C)(C)[C@@H](OC(=O)C(C)C)[C@H](O)[C@@H]3O)/C(C)=C/C(C)=C/C[C@@H]([C@@H](C)O)OC2=O)O[C@@H]1C [FIDAXOMICIN]
Clostridioides difficile [1]
  MIC: 0.06 µg/mL (≈ 0.0567 µM)
Clostridioides difficile [2]
  MIC: 0.25 µg/mL (≈ 0.236 µM)
Clostridioides difficile [3]
  MIC: 1 µg/mL (≈ 0.945 µM)
Clostridioides difficile [4]
  MIC: ≤ 0.01 µg/mL
Clostridioides difficile [5]
  MIC: 0.01 µg/mL (≈ 0.00945 µM)
Clostridioides difficile [6]
  MIC: 0.01 µg/mL (≈ 0.00945 µM)
Clostridioides difficile [7]
  MIC: 0.125 µg/mL (≈ 0.118 µM)
Clostridioides difficile [8]
  MIC: 0.5 µg/mL (≈ 0.473 µM)
Clostridioides difficile [9]
  MIC: 0.03 µg/mL (≈ 0.0284 µM)
Clostridioides difficile [10]
  MIC: 4 µg/mL (≈ 3.78 µM)
Clostridioides difficile [11]
  MIC: > 8 µg/mL
Clostridioides difficile [12]
  MIC: 0.01 µg/mL (≈ 0.00945 µM)
Staphylococcus aureus [13]
  MIC: 64 µg/mL (≈ 60.5 µM)
[14]
  MIC: 16 µg/mL (≈ 15.1 µM)
Streptococcus oralis
  MIC: 32 µg/mL (≈ 30.2 µM)
Enterococcus faecium [15]
  MIC: > 16 µg/mL
Enterococcus faecium [16]
  MIC: > 16 µg/mL
Bacteroides fragilis
  MIC: > 32 µg/mL
Bifidobacterium longum
  MIC: < 0.01 µg/mL
Corynebacterium sp.
  MIC: < 0.06 µg/mL
Fusobacterium nucleatum
  MIC: < 0.06 µg/mL
[17]
  MIC: > 32 µg/mL
Lactobacillus gasseri
  MIC: 2 µg/mL (≈ 1.89 µM)
Veillonella
  MIC: 8 µg/mL (≈ 7.56 µM)
Eubacterium sp.
  MIC: 16 µg/mL (≈ 15.1 µM)
Klebsiella pneumoniae
  MIC: > 128 µg/mL
Acinetobacter baumannii
  MIC: > 128 µg/mL
Pseudomonas aeruginosa
  MIC: > 128 µg/mL
Klebsiella aerogenes
  MIC: > 128 µg/mL
Escherichia coli
  MIC: > 128 µg/mL

## FC(F)(F)c1ccc(Oc2ccc(-c3noc(-c4ccc5[nH]ccc5c4)n3)cc2)cc1
THP-1
  IC50: 69 µg/mL (≈ 164 µM)
[18]
  selectivity ratio: 17
Clostridioides difficile [1]
  MIC: 2 µg/mL (≈ 4.75 µM)
Clostridioides difficile [2]
  MIC: 4 µg/mL (≈ 9.49 µM)
Clostridioides difficile [3]
  MIC: 2 µg/mL (≈ 4.75 µM)
Clostridioides difficile [4]
  MIC: 2 µg/mL (≈ 4.75 µM)
Clostridioides difficile [5]
  MIC: 1 µg/mL (≈ 2.37 µM)
Clostridioides difficile [6]
  MIC: 4 µg/mL (≈ 9.49 µM)
Clostridioides difficile [7]
  MIC: 2 µg/mL (≈ 4.75 µM)
Clostridioides difficile [8]
  MIC: 2 µg/mL (≈ 4.75 µM)
Clostridioides difficile [9]
  MIC: 2 µg/mL (≈ 4.75 µM)
Clostridioides difficile [10]
  MIC: 4 µg/mL (≈ 9.49 µM)
Clostridioides difficile [12]
  MIC: 4 µg/mL (≈ 9.49 µM)
Staphylococcus aureus [19]
  MIC: 4 µg/mL (≈ 9.49 µM)
Staphylococcus aureus [20]
  MIC: 4 µg/mL (≈ 9.49 µM)
Staphylococcus aureus [21]
  MIC: 2 µg/mL (≈ 4.75 µM)
Staphylococcus aureus [22]
  MIC: 2 µg/mL (≈ 4.75 µM)
Staphylococcus aureus [23]
  MIC: 2 µg/mL (≈ 4.75 µM)
Staphylococcus aureus [13]
  MIC: 2 µg/mL (≈ 4.75 µM)
Staphylococcus aureus [24]
  MIC: 2 µg/mL (≈ 4.75 µM)
[25]
  MIC: 2 µg/mL (≈ 4.75 µM)
[14]
  MIC: 8 µg/mL (≈ 19 µM)
Streptococcus oralis
  MIC: 128 µg/mL (≈ 304 µM)
Streptococcus pyogenes
  MIC: 64 µg/mL (≈ 152 µM)
Bacillus cereus
  MIC: 16 µg/mL (≈ 38 µM)
Bacillus licheniformis
  MIC: 8 µg/mL (≈ 19 µM)
Enterococcus faecalis [26]
  MIC: 8 µg/mL (≈ 19 µM)
Enterococcus faecalis [27]
  MIC: 4 µg/mL (≈ 9.49 µM)
Enterococcus faecalis [28]
  MIC: 4 µg/mL (≈ 9.49 µM)
Enterococcus faecium [15]
  MIC: 1 µg/mL (≈ 2.37 µM)
Enterococcus faecium [16]
  MIC: 2 µg/mL (≈ 4.75 µM)
Enterococcus faecium [29]
  MIC: 2 µg/mL (≈ 4.75 µM)
Bacteroides fragilis
  MIC: 4 µg/mL (≈ 9.49 µM)
Bifidobacterium longum
  MIC: 0.25 µg/mL (≈ 0.593 µM)
Corynebacterium sp.
  MIC: 2 µg/mL (≈ 4.75 µM)
Fusobacterium nucleatum
  MIC: 1 µg/mL (≈ 2.37 µM)
[17]
  MIC: > 128 µg/mL
Lactobacillus gasseri
  MIC: > 128 µg/mL
Veillonella
  MIC: > 128 µg/mL
Eubacterium sp.
  MIC: 2 µg/mL (≈ 4.75 µM)
Klebsiella pneumoniae
  MIC: > 128 µg/mL
Acinetobacter baumannii
  MIC: > 128 µg/mL
Pseudomonas aeruginosa
  MIC: > 128 µg/mL
Klebsiella aerogenes
  MIC: > 128 µg/mL
Escherichia coli
  MIC: > 128 µg/mL
